Numbers after ± are expanded uncertainties.
Tests used:
[1] = refractive index (Na D-line) (dimensionless); conditions: 293.15 K; 101.33 kPa; Liquid; Standard Abbe refractometry
[2] = Liquid; for mass density: 293.15 K, 101.33 kPa, Pycnometric method; for Normal boiling temperature: Fischer Boiling Apparatus

| refractive index [1] | mass density [2] | Normal boiling temperature [2] | Compound |
| --- | --- | --- | --- |
| 1.3721 ± 0.0005 | 1218.5 ± 1.5 kg/m3 | 101.1 ± 1 °C | O=CO [formic acid] |
| 1.3808 ± 0.0004 | 988.1 ± 0.43 kg/m3 | 141.1 ± 1 °C | CCC(=O)O [propanoic acid] |
| 1.3324 ± 0.0003 | 999.9 ± 0.26 kg/m3 | 100.1 ± 1 °C | O [water] |
| 1.4402 ± 0.0005 | 829.2 ± 0.74 kg/m3 | 245.1 ± 1 °C | CCCCCCCCCCCO [1-undecanol] |
| 1.4088 ± 0.0004 | 932.5 ± 0.4 kg/m3 | 186.00 ± 1 °C | CCCCC(=O)O [pentanoic acid] |
| 1.371 ± 0.0004 | 1044.3 ± 0.47 kg/m3 | 117.80 ± 1 °C | CC(=O)O [acetic acid] |

From the NIST ThermoML archive (doi:10.1016/j.fluid.2012.06.020)
